Results as given in patent publication US20140377219A1, “HIV INHIBITORS” (New york Blood Center, Inc., priority 2011, published 2014).
Where two headings read alike, the source gives them in different places.

Experiments:
TZM-bl cells = assay: Cytotoxicity in TZM-bl cells (XTT); assay type: cell-based
How it was run: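 TZM-bl cells (10^5/ml) combined with equal volumes of compound at graded concentrations and incubated 3 days at 37° C. Viability measured colorimetrically by XTT tetrazolium dye reduction.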

PBMC = assay: Cytotoxicity in PBMC (XTT); assay type: cell-based
Experimental: Cytotoxicity of small molecules in MT-2 cells and PBMC was measured by the XTT ((sodium 3′-(1-(phenylamino)-carbonyl)-3,4-tetrazolium-bis(4-methoxy-6-nitro)benzene-sulfonic acid hydrate)) method. Briefly, for MT-2 cells, 100 μl of a small molecule at graded concentrations was added to an equal volume of cells (10^5 cells/ml) in 96-well plates followed by incubation at 37° C. for four days, which ran parallel with the neutralization assay in MT-2 (except medium was added instead of virus). In the case of PBMC, 5×10^5 cells/ml was used and the cytotoxicity was measured after seven days. […] The percentage cytotoxicity and the CC50 values were calculated as described above.

[1] = system: Panel C env Du156, clone 12 (SVPC3); assay type: cell-based; settings: TZM-bl, read-out: IC50 (μM) ± S.D., antiviral activity against HIV-1 envelope pseudoviruses
[2] = system: Panel C env Du172, clone 17 (SVPC4); assay type: cell-based; settings: TZM-bl, read-out: IC50 (μM) ± S.D., antiviral activity against HIV-1 envelope pseudoviruses
[3] = system: Panel C env ZM-135M.PL10a, SVPC15; assay type: cell-based; settings: TZM-bl, read-out: IC50 (μM) ± S.D., antiviral activity against HIV-1 envelope pseudoviruses
[4] = system: Panel B env SC422661, clone B (SVPB8); assay type: cell-based; settings: TZM-bl, read-out: IC50 (μM) ± S.D., antiviral activity against HIV-1 envelope pseudoviruses
gp120-CD4 interaction = gp120-CD4 interaction (Human immunodeficiency virus type 1 group M subtype B, UniProt P03375); assay type: binding; settings: FIG. 7
[5] = system: laboratory-adapted HIV-1 IIIB strain
Experimental: In brief, 1×10^4 MT-2 cells were infected with HIV-1 at 100 TCID50 (50% tissue culture infective dose) (0.01MOI) in 200 μl medium in the presence or absence of small molecules at graded concentrations and incubated overnight. The culture supernatants were then removed and replaced with fresh media. On the fourth day post-infection, 100 μl of culture supernatants were collected from each well, mixed with equal volume of 5% Triton X-100 and tested for p24 antigen by sandwich-ELISA. The percent inhibition of p24 production and IC50 values were calculated by the GraphPad Prism software (GraphPad Software Inc.).

[6] = system: primary HIV-1 isolate RU570 (clade G, R5); assay: Neutralization assay in PBMC (p24 ELISA); settings: read-out: IC50 (μM) ± S.D., inhibitory activity on infection; RU570, subtype G, PBMC, R5, primary isolate
Experimental: (§2) PBMCs were isolated from the blood of healthy donors at the New York Blood Center by standard density-gradient centrifugation using Histopaque-1077 (Sigma-Aldrich). The cells were cultured at 37° C. for 2 h. Non-adherent cells were collected and resuspended at 5×10^6 cells/ml in RPMI-1640 medium containing 10% (v/v) fetal bovine serum, 5 μg/ml of phytohemagglutinin, and 100 U/ml of IL-2 (Sigma-Aldrich), followed by incubation at 37° C. for three days.

[7] = system: primary HIV-1 isolate 92US657 (subtype B, R5); assay: Neutralization assay in PBMC (p24 ELISA); settings: read-out: IC50 (μM) ± S.D., inhibitory activity on infection; 92US657, subtype B, PBMC, R5, primary isolate
Experimental: as §2

[8] = system: primary HIV-1 isolate 93TH060 (subtype E, R5); assay: Neutralization assay in PBMC (p24 ELISA); settings: read-out: IC50 (μM) ± S.D., inhibitory activity on infection; 93TH060, subtype E, PBMC, R5, primary isolate
Experimental: The inhibitory activity of small molecules on infection by primary HIV-1 isolates was determined. PBMCs were isolated from the blood of healthy donors at the New York Blood Center by standard density-gradient centrifugation using Histopaque-1077 (Sigma-Aldrich). The cells were cultured at 37° C. for 2 h. Non-adherent cells were collected and resuspended at 5×10^6 cells/ml in RPMI-1640 medium containing 10% (v/v) fetal bovine serum, 5 μg/ml of phytohemagglutinin, and 100 U/ml of IL-2 (Sigma-Aldrich), followed by incubation at 37° C. for three days.

HIV-1 RF = assay: Multi-cycle neutralization assay in MT-2 cells; settings: read-out: IC50 (μM) ± S.D., inhibitory activity on infection; RF, subtype B, MT-2, R5X4, laboratory strain
HIV-1IIIB gp120 and sCD4 = biological target: T1, HIV-1IIIB gp120 and sCD4 (Human immunodeficiency virus type 1 group M subtype B, UniProt P03375); assay: biochemical; assay type: binding; settings: captured ELISA, sCD4 0.25 μg/ml; read-out: IC50 (μM ± SD), interaction HIV-1IIIB gp120 and sCD4
T1 construct: recombinant gp120 from HIV-1IIIB and HIV-1MN
Experimental: (§1) The compounds were incubated at graded concentrations with sCD4 (0.25 μg/ml) in the wells of polystyrene plates containing recombinant gp120, which was captured by coating the plates with a sheep anti-gp120 antibody D7324.

HIV-1MN gp120 and sCD4 = biological target: T2, HIV-1MN gp120 and sCD4 (Human immunodeficiency virus type 1 group M subtype B, UniProt P05877); assay: biochemical; assay type: binding; settings: captured ELISA, sCD4 0.25 μg/ml; read-out: IC50 (μM ± SD), interaction HIV-1MN gp120 and sCD4
T2 construct: recombinant gp120 from HIV-1IIIB and HIV-1MN
Experimental: as §1

[9] = system: CD4-dependent virus (ADA); assay type: cell-based; settings: ADA in Cf2Th-CD4+-CCR5+ target cells, FIG. 5; read-out: IC50, inhibition of the CD4-dependent virus
gp120 = gp120 (Human immunodeficiency virus type 1 group M subtype B, UniProt P03375); assay: biochemical; assay type: binding, HIV-1; settings: SPR, ligand gp120
CD4 = CD4 (Homo sapiens, UniProt P01730); assay: Surface plasmon resonance (SPR), ligand CD4; assay type: binding; settings: SPR
[10] = read-out: IC50 (μM) ± S.D., inhibitory activity on infection, IIIB, subtype B, MT-2, X4, laboratory strain
[11] = read-out: MT-2 Cells IC50 (μM ± SD), multi-cycle assay, MT-2 cells, HIV-1 IIIB
[12] = TZM-bl cells, XTT, 3 days, read-out: TZM-bl cells CC50 (μM ± SD)
[13] = at the dose given as CC50 bound
[14] = PBMC, XTT, seven days, read-out: PBMC CC50

| Structure (SMILES) | CC50 (TZM-bl cells) [µM] | CC50 (PBMC) [µM] | IC50 [1] [µM] | IC50 [2] [µM] | IC50 [3] [µM] | IC50 [4] [µM] | inhibition of the gp120-CD4 interaction (gp120-CD4 interaction) | IC50 [5, 10] [µM] | IC50 [5, 11] [µM] | IC50 [6] [µM] | IC50 [7] [µM] | IC50 [8] [µM] | IC50 (HIV-1 RF) [µM] | CC50 (TZM-bl cells; [12]) [µM] | % toxicity at that dose (number in parenthesis), TZM-bl cells (TZM-bl cells; [13]) [%] | CC50 (PBMC; [14]) [µM] | other results |
| --- | --- | --- | --- | --- | --- | --- | --- | --- | --- | --- | --- | --- | --- | --- | --- | --- | --- |
| Cc1nc(C(NC(=O)C(=O)Nc2ccc(Cl)cc2)C2CCCCN2)sc1CO.Cl (stereo not drawn) [Compound 6, N^1-(4-chlorophenyl)-N^2-((5-(hydroxymethyl)-4-methylthiazol-2-yl)(piperidin-2-yl)methyl)oxalamide.HCl] | > 22 | > 160 | 4.6 ± 0.13 | 3 ± 0.38 | 0.73 ± 0.13 | 2.3 ± 0.2 | inhibit gp120-CD4 interaction in a dose dependent manner | 4.7 ± 0.6 | 4.7 ± 0.6 | 8.5 ± 0.8 | 8.6 ± 0.9 | 7.2 ± 0.6 | 9.6 ± 0.8 |  |  |  | % toxicity at that dose (number in parenthesis), TZM-bl cells (TZM-bl cells): 10% |
| Cc1ccc(NC(=O)C(=O)NC(c2nc(C)c(CO)s2)C2CCCCN2)cc1F.Cl (stereo not drawn) [Compound 28, N^1-(3-fluoro-4-methylphenyl)-N^2-((5-(hydroxymethyl)-4-methylthiazol-2-yl)(piperidin-2-yl)methyl)oxalamide.HCl] |  |  |  |  |  | 2.5 ± 0.3 |  | 3.7 ± 0.7 | 5.3 ± 0.5 | 15.7 ± 0.2 | 12.3 ± 1.3 | 9.9 ± 1.8 | 11 ± 0.6 | > 88 | 0 | ~106 |  |
| Cc1nc(C(NC(=O)C(=O)Nc2ccc(Cl)c(F)c2)C2CCCCN2)sc1CCO.Cl (stereo not drawn) [Compound 39, N^1-(4-chloro-3-fluorophenyl)-N^2-((5-(2-hydroxyethyl)-4-methylthiazol-2-yl)(piperidin-2-yl)methyl)oxalamide.HCl] | ~61 | > 81 | 1.7 ± 0.2 | 5.3 ± 0.2 | 0.61 ± 0.1 | 1.3 ± 0.1 |  | 3.5 ± 0.9 | 3.5 ± 0.9 | 10.7 ± 0.5 | 7.1 ± 0.9 | 13.7 ± 0.9 | 11.8 ± 1.2 |  |  |  | % toxicity at that dose (number in parenthesis), PBMC (PBMC): (20%) |
| CC1(C)CC(NC(=O)C(=O)Nc2ccc(Cl)cc2)CC(C)(C)N1 [NBD-556, reference compound] |  |  |  | 4.2 ± 0.23 | 1.5 ± 0.01 |  | in a dose dependent manner | 6.5 ± 0.1 | 8 ± 0.2 | 19.5 ± 2.3 | 48 ± 1.65 | > 45 | 18.7 ± 1.3 | > 60 | 10 | 961 | IC50 (HIV-1IIIB gp120 and sCD4): 2.11 µM; IC50 (HIV-1MN gp120 and sCD4): 5.66 ± 0.8 µM; IC50 [9]: 22.6 µM; Rmax (RU) (gp120): 6.99 RU; binding to CD4 (CD4): not to CD4 |
